Data: patent EP4578856A1, “HETEROCYCLIC COMPOUND” (Ubience Inc., priority 2022, dated 2024)

What follows are compounds tested against FAK protein (Homo sapiens, UniProt Q05397) (assay: FAK kinase inhibitory activity, mobility shift assay (MSA, Carna Biosciences)). Settings: inhibition rate at 30 nM; reaction time 5 hours.
Type: biochemical
Parameters: GST (N); purchased Carna Biosciences, Inc; host or cells: baculovirus expression system
Protocol: The FAK kinase inhibitory activity was measured using a mobility shift assay (MSA) provided by Carna Biosciences, Inc.
The test compound was dissolved in DMSO to prepare a 3 µM solution. The solution was further diluted 25 times with an assay buffer (20 mmol/L HEPES, 0.01%Triton (registered trademark) X-100, 1 mmol/L DTT, pH 7.5) to obtain a test compound solution.
Incomplete human FAK kinase was expressed by fusing 376 to 1052 amino acids of Accession No. NP_722560.1 with GST at the N-terminus using the baculovirus expression system. The GST-FAK was purified by glutathione sepharose chromatography. A 4-fold concentration substrate (Blk/Lyntide, 1000 nmol/L)/ATP (25 µmol/L)/metal solution (Mg, 5 mmol/L) was prepared with kit buffer (20 mmol/L HEPES, 0.01% Triton (registered trademark) X-100, 5 mmol/L DTT, pH 7.5). A 2-fold concentration kinase solution was prepared with assay buffer.
In the same manner as described in Test Example 1, tests and evaluation of inhibitory activity and data analysis were performed. The reaction time was set to 5 hours. […]

Chain of FAK protein (Q05397 376-1052): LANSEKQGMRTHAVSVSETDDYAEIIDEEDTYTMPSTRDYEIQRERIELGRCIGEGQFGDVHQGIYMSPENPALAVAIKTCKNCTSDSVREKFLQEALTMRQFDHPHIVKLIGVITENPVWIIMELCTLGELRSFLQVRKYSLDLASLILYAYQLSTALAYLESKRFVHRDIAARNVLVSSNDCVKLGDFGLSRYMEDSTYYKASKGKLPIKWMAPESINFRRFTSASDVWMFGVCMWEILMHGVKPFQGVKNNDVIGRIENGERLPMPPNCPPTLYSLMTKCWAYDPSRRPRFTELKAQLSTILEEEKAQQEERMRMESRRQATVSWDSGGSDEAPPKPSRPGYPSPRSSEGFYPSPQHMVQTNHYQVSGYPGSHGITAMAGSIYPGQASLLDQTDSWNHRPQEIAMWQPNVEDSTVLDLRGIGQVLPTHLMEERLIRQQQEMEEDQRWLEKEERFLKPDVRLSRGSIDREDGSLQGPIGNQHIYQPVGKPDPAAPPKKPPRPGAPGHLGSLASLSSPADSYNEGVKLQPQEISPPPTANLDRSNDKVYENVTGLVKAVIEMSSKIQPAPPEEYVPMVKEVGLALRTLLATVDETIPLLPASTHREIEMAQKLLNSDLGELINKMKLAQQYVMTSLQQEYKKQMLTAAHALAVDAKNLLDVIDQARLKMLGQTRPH

Row | SMILES | inhibition at 0.03 µM [%]
1 | COC[C@H]1CN[C@H](C)CN1CC(=O)N1CC(C)(C)c2ncc(Cc3cccc(OCCN4CCN(CCOCCOCCOCCOCC(=O)Nc5ccc(Nc6ncc(C(F)(F)F)c(NCc7cccc(S(C)(=O)=O)c7)n6)cc5)CC4)c3)cc21 [Example 128, 14-(4-(2-(3-((1-(2-((2R,5R)-2-(Methoxymethyl)-5-methylpiperazin-1-yl)acetyl)-3,3-dimethyl-2,3-dihydro-1H-pyrrolo[3,2-b]pyridin-6-yl)methyl)phenoxy)ethyl)piperazin-1-yl)-N-(4-((4-((3-(methylsulfonyl)benzyl)amino)-5-(trifluoromethyl)pyrimidin-2-yl)amino)phenyl)-3,6,9,12-tetraoxatetradecanamide] | 50 to 75
2 | C[C@@H]1CN(CC(=O)N2CC(C)(C)c3ncc(Cc4ccc(F)cc4)cc32)[C@@H](CN(C)CCOCC(=O)Nc2ccc(Nc3ncc(C(F)(F)F)c(NCc4cccc(S(C)(=O)=O)c4)n3)cc2)CN1 [Example 109, 2-(2-((((2R,5R)-1-(2-(6-(4-Fluorobenzyl)-3,3-dimethyl-2,3-dihydro-1H-pyrrolo[3,2-b]pyridin-1-yl)-2-oxoethyl)-5-methylpiperazin-2-yl)methyl)(methyl)amino)ethoxy)-N-(4-((4-((3-(methylsulfonyl)benzyl)amino)-5-(trifluoromethyl)pyrimidin-2-yl)amino)phenyl) acetamide] | ≥ 75
3 | COC[C@H]1CN[C@H](C)CN1CC(=O)N1CC(C)(C)c2nc(CN3CCN(CCOCCOCC(=O)Nc4ccc(Nc5ncc(C(F)(F)F)c(NCc6cccc(S(C)(=O)=O)c6)n5)cc4)CC3)c(Cc3ccc(F)cc3)cc21 [Example 116, 2-(2-(2-(4-((6-(4-Fluorobenzyl)-1-(2-((2R,5R)-2-(methoxymethyl)-5-methylpiperazin-1-yl)acetyl)-3,3-dimethyl-2,3-dihydro-1H-pyrrolo[3,2-b]pyridin-5-yl)methyl)piperazin-1-yl)ethoxy)ethoxy)-N-(4-((4-((3-(methylsulfonyl)benzyl)amino)-5-(trifluoromethyl)pyrimidin-2-yl)amino)phenyl)acetamide] | 50 to 75
4 | COC[C@H]1CN[C@H](C)CN1CC(=O)N1CC(C)(C)c2ncc(Cc3ccccc3OCCN3CCN(CCOCCOCCOCC(=O)Nc4ccc(Nc5ncc(C(F)(F)F)c(NCc6cccc(S(C)(=O)=O)c6)n5)cc4)CC3)cc21 [Example 122, 2-(2-(2-(2-(4-(2-(2-((1-(2-((2R,5R)-2-(Methoxymethyl)-5-methylpiperazin-1-yl)acetyl)-3,3-dimethyl-2,3-dihydro-1H-pyrrolo[3,2-b]pyridin-6-yl)methyl)phenoxy)ethyl)piperazin-1-yl)ethoxy)ethoxy)ethoxy)-N-(4-((4-((3-(methylsulfonyl)benzyl)amino)-5-(trifluoromethyl)pyrimidin-2-yl)amino)phenyl)acetamide] | 50 to 75

The compounds below were run against T1, human ALK kinase (Homo sapiens, UniProt Q9UM73) (assay: ALK kinase inhibitory activity, mobility shift assay (MSA, Carna Biosciences)). Settings: inhibition rate at 10 nM.
T1 construct: GST (N); purchased Carna Biosciences, Inc; host or cells: baculovirus expression system
Type: biochemical
Protocol: The ALK kinase inhibitory activity was measured using a mobility shift assay (MSA) provided by Carna Biosciences, Inc.
The test compound was dissolved in DMSO to prepare a 1 µM solution. The solution was further diluted 25 times with an assay buffer (20 mmol/L HEPES, 0.01%Triton (registered trademark) X-100, 1 mmol/L DTT, pH 7.5) to obtain a test compound solution.
The human ALK kinase was expressed by fusing the cytoplasmic domain (1058 to 1620 amino acids of Accession No. BAG 10812.1) with GST at the N-terminus using the baculovirus expression system. The GST-ALK was purified by glutathione sepharose chromatography. A 4-fold concentration substrate (Srctide, 1000 nmol/L)/ATP (50 µmol/L)/metal solution (Mg, 5 mmol/L) was prepared with kit buffer (20 mmol/L HEPES, 0.01% Triton (registered trademark) X-100, 5 mmol/L DTT, pH 7.5). A 2-fold concentration kinase solution was prepared with assay buffer.
In the same manner as described in Test Example 1, tests and evaluation of inhibitory activity and data analysis were performed.

T1 sequence (Q9UM73 1058-1620): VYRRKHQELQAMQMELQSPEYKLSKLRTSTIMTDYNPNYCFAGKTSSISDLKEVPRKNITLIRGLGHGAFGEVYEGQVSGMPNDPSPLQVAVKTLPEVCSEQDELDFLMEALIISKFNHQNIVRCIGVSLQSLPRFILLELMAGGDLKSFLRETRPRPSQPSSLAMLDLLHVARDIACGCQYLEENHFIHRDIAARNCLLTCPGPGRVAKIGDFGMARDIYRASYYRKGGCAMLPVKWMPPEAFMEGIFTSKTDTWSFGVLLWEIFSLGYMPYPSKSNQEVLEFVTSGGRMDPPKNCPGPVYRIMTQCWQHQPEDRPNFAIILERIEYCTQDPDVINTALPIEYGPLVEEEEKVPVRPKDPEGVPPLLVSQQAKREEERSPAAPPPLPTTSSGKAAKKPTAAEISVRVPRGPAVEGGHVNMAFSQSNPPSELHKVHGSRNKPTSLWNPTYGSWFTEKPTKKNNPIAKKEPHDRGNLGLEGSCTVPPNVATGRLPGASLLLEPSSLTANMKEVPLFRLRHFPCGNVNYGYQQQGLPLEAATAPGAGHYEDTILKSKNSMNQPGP

Row | SMILES | inhibition at 0.01 µM [%]
5 | COC[C@H]1CN[C@H](C)CN1CC(=O)N1CC(C)(C)c2nc(CN(C)CCOCCOCCNC(=O)CN3CCC(c4cc(OC(C)C)c(Nc5ncc(Cl)c(Nc6ccccc6S(=O)(=O)C(C)C)n5)cc4C)CC3)c(Cc3ccc(F)cc3)cc21 [Example 92, 2-(4-(4-((5-Chloro-4-((2-(isopropylsulfonyl)phenyl)amino)pyrimidin-2-yl)amino)-5-isopropoxy-2-methylphenyl)piperidin-1-yl)-N-(2-(2-(2-(((6-(4-fluorobenzyl)-1-(2-((2R,5R)-2-(methoxymethyl)-5-methylpiperazin-1-yl)acetyl)-3,3-dimethyl-2,3-dihydro-1H-pyrrolo[3,2-b]pyridin-5-yl)methyl) (methyl)amino)ethoxy)ethoxy)ethyl) acetamide] | ≥ 75
6 | COC[C@H]1CN[C@H](C)CN1CC(=O)N1CC(C)(C)c2nc(CN(C)CCOCCOCCOCCOCCOCCNC(=O)CN3CCC(c4cc(OC(C)C)c(Nc5ncc(Cl)c(Nc6ccccc6S(=O)(=O)C(C)C)n5)cc4C)CC3)c(Cc3ccc(F)cc3)cc21 [Example 95, 2-(4-(4-((5-Chloro-4-((2-(isopropylsulfonyl)phenyl)amino)pyrimidin-2-yl)amino)-5-isopropoxy-2-methylphenyl)piperidin-1-yl)-N-(1-(6-(4-fluorobenzyl)-1-(2-((2R,5R)-2-(methoxymethyl)-5-methylpiperazin-1-yl)acetyl)-3,3-dimethyl-2,3-dihydro-1H-pyrrolo[3,2-b]pyridin-5-yl)-2-methyl-5,8,11,14,17-pentaoxa-2-azanonadecan-19-yl)acetamide] | ≥ 75
7 | COC[C@H]1CN[C@H](C)CN1CC(=O)N1CC(C)(C)c2ncc(Cc3ccccc3OCCOCCOCCOCCOCCNC(=O)CN3CCC(c4cc(OC(C)C)c(Nc5ncc(Cl)c(Nc6ccccc6S(=O)(=O)C(C)C)n5)cc4C)CC3)cc21 [Example 100, 2-(4-(4-((5-Chloro-4-((2-(isopropylsulfonyl)phenyl)amino)pyrimidin-2-yl)amino)-5-isopropoxy-2-methylphenyl)piperidin-1-yl)-N-(14-(2-((1-(2-((2R,5R)-2-(methoxymethyl)-5-methylpiperazin-1-yl)acetyl)-3,3-dimethyl-2,3-dihydro-1H-pyrrolo[3,2-b]pyridin-6-yl)methyl)phenoxy)-3,6,9,12-tetraoxatetradecyl)acetamide] | ≥ 75
8 | COC[C@H]1CN[C@H](C)CN1CC(=O)N1CC(C)(C)c2ncc(Cc3cccc(OCCOCCOCCOCCOCCOCCNC(=O)CN4CCC(c5cc(OC(C)C)c(Nc6ncc(Cl)c(Nc7ccccc7S(=O)(=O)C(C)C)n6)cc5C)CC4)c3)cc21 [Example 107, 2-(4-(4-((5-Chloro-4-((2-(isopropylsulfonyl)phenyl)amino)pyrimidin-2-yl)amino)-5-isopropoxy-2-methylphenyl)piperidin-1-yl)-N-(17-(3-((1-(2-((2R,5R)-2-(methoxymethyl)-5-methylpiperazin-1-yl)acetyl)-3,3-dimethyl-2,3-dihydro-1H-pyrrolo[3,2-b]pyridin-6-yl)methyl)phenoxy)-3,6,9,12,15-pentaoxaheptadecyl)acetamide] | ≥ 75
9 | Cc1cc(Nc2ncc(Cl)c(Nc3ccccc3S(=O)(=O)C(C)C)n2)c(OC(C)C)cc1C1CCN(CC(=O)NCCOCCN(C)C[C@H]2CN[C@H](C)CN2CC(=O)N2CC(C)(C)c3ncc(Cc4ccc(F)cc4)cc32)CC1 [Example 85, 2-(4-(4-((5-Chloro-4-((2-(isopropylsulfonyl)phenyl)amino)pyrimidin-2-yl)amino)-5-isopropoxy-2-methylphenyl)piperidin-1-yl)-N-(2-(2-((((2R,5R)-1-(2-(6-(4-fluorobenzyl)-3,3-dimethyl-2,3-dihydro-1H-pyrrolo[3,2-b]pyridin-1-yl)-2-oxoethyl)-5-methylpiperazin-2-yl)methyl) (methyl)amino)ethoxy)ethyl)acetamide] | 50 to 75
10 | Cc1cc(Nc2ncc(Cl)c(Nc3ccccc3S(=O)(=O)C(C)C)n2)c(OC(C)C)cc1C1CCN(CC(=O)NCCOCCOCCOCCOCCOCCN(C)C[C@H]2CN[C@H](C)CN2CC(=O)N2CC(C)(C)c3ncc(Cc4ccc(F)cc4)cc32)CC1 [Example 89, 2-(4-(4-((5-Chloro-4-((2-(isopropylsulfonyl)phenyl)amino)pyrimidin-2-yl)amino)-5-isopropoxy-2-methylphenyl)piperidin-1-yl)-N-(1-((2R,5R)-1-(2-(6-(4-fluorobenzyl)-3,3-dimethyl-2,3-dihydro-1H-pyrrolo[3,2-b]pyridin-1-yl)-2-oxoethyl)-5-methylpiperazin-2-yl)-2-methyl-5,8,11,14,17-pentaoxa-2-azanonadecan-19-yl)acetamide] | 50 to 75
